Data as given in patent US20240026301A1, “METHODS AND COMPOSITIONS FOR GENERATING ENDOTHELIAL CELLS FROM PLURIPOTENT STEM CELLS” (Trailhead Biosystems Inc., priority 2022, published 2024).
“Also recorded” adds a separate entry of the source.

Columns and labels:
pluripotent stem cells = details: DMEM base media with ascorbic acid; GSK-inhibitor treatment; cited from earlier work
PECAM1 (CD31) = experiment: 8-factor HD-DoE experiments (qPCR, partial least squares models) optimized for maximum expression of PECAM1 (CD31), stage 2 differentiation; format: cell-based, human
Description: First, undifferentiated iPSC were grown for 48 h in CDM2 media containing 6 uM CHIR99021 (referred to herein as stage 1). Then stage 2 media was engineered. The basis of this was an 8-factor HD-DoE experiment with focus on differentiation of cells toward the endothelial lineage for an additional 3 days after termination of stage 1 treatment. To test the effectors, 48 different combinations of effectors generated using Design-of-Experiments compression through D-optimality were robotically prepared. The effector combinations were prepared in a basal media and were subsequently added to the cells, which were then allowed to differentiate. Three days later, RNA extraction was performed, and gene expression was obtained using quantitative PCR analysis. The data were normalized and modeled using partial least squares regression analysis to the effector design, resulting in the generation of gene-specific models, which after model tuning for maximal Q2 predictive power, provided explanation of the effectors ability to control the expression of individual genes, combinatorically, and individually. Solutions within the tested space could then be explored to address desirability. Optimizing for maximal expression of CD31 led to a robust solution. […] On this model, we observed high levels of KDR, important receptor for VEGF signaling.
This model was derived from initial testing of eight factors including: VEGF, FGF2, TTNBP, AGN194310, Y27632, Thymosin B4 and Heparin.
Next, we evaluated further factors to possibly increase the complexity of the signaling inputs to attain effective fate control. As previously, we focused on expression of CD31. Optimizing for maximal expression of the CD31 led to a robust solution. […] This model was derived from initial testing of eight factors including: YHHU-3792, DBZ, Pumorphamine, SANT1, LPA, YODA1, VEGF and B27. […] DBZ and LPA had low contributions factors and therefore were not used in the recipe.
To further improve the recipe for endothelial cell differentiation, we performed additional HD-DoE experiments. This model was derived from initial testing of eight factors including: VEGF, FGF2, Sphingosine 1 phosphate, VH298, Pyrintegrin, Erythropoetin, L-ascorbic acid and XAV939. […] On this model, we observed high levels of KDR, important receptor for VEGF signaling. […] Considering all the models analyzed, based on predicted conditions that maximize expression of endothelial enriched genes such as ERG, CDH5, CD31, FLI1, CD34, a complex recipe for endothelial differentiation was developed that is composed of 6 effectors, as shown below in Table 2: […]

CD31 [1] = experiment: Factor criticality analysis (dynamic profile analysis), CD31 expression level; format: cell-based, human; design: values of CD31, effector removed / CD31 levels, effector removed / CD31 levels before addition of the SHH agonist / CD31 levels after addition of the SHH agonist: unit not given here; details: for values of CD31, effector present / values of CD31, effector removed: FIG. 6 model; for values of CD31, effector present: all factors present
CDH5 [2] = experiment: Factor criticality analysis (dynamic profile analysis), CDH5 expression level; format: cell-based, human
[3] = tested on: PECAM1, CD34, CDH5 and FLI1; experiment: Dynamic profile analysis of expression levels relative to effector concentration (figure legends); format: cell-based, human; details: for impact on expression of PECAM1, CD34, CDH5 and FLI1: FIG. 5A-5B, slope of plots relative to effector concentration
Text: FIG. 5A-5B show the dynamic profile analysis of expression levels of PECAM1, CD34, CDH5 and FLI1 relative to the concentration of 3 validated effectors.
FIG. 6A-6B show the dynamic profile analysis of expression levels of PECAM1, CD34, CDH5 and Fli1 relative to the concentration of 3 validated effectors.
(§1) To assess the impact of elimination of each validated factor on genes associated with the endothelial lineage, dynamic profile analysis was used and the expression levels of genes of interest were compared in the absence of each finalized factor while others are kept present.

CD34 = experiment: Factor criticality analysis (dynamic profile analysis), CD34 expression level; format: cell-based, human; details: for values of CD34, effector present / values of CD34, effector removed: FIG. 5 model; for values of CD34, effector present: all finalized factors present; for values of CD34, effector removed / CD34 levels, effector removed: named effector removed; for values of CD34, effector removed: other factors kept
Description: (§2) First, undifferentiated iPSC were grown for 48 h in CDM2 media containing 6 uM CHIR99021 (referred to herein as stage 1). Then stage 2 media was engineered. The basis of this was an 8-factor HD-DoE experiment with focus on differentiation of cells toward the endothelial lineage for an additional 3 days after termination of stage 1 treatment. To test the effectors, 48 different combinations of effectors generated using Design-of-Experiments compression through D-optimality were robotically prepared. The effector combinations were prepared in a basal media and were subsequently added to the cells, which were then allowed to differentiate. Three days later, RNA extraction was performed, and gene expression was obtained using quantitative PCR analysis. The data were normalized and modeled using partial least squares regression analysis to the effector design, resulting in the generation of gene-specific models, which after model tuning for maximal Q2 predictive power, provided explanation of the effectors ability to control the expression of individual genes, combinatorically, and individually. Solutions within the tested space could then be explored to address desirability.
as §1
(§3) In this analysis, removal of a finalized effector while keeping other factors was used to analyze the impact of factors on the expression levels of CD31, CD34, FLi1 and CDH5 (FIG. 5A).

CD31 [4] = experiment: Factor criticality analysis (dynamic profile analysis), CD31 expression level; format: cell-based, human; design: values of CD31, effector removed: unit not given here; details: FIG. 5 model; for values of CD31, effector present: all finalized factors present; for values of CD31, effector removed: named effector removed, other factors kept
Description: as §2, §1, §3

CDH5 [5] = experiment: Factor criticality analysis (dynamic profile analysis), CDH5 expression level; format: cell-based, human; details: FIG. 5 model; for values of CDH5, effector present: all finalized factors present; for values of CDH5, effector removed: named effector removed, other factors kept
Description: as §2, §1, §3

FLI1 = experiment: Factor criticality analysis (dynamic profile analysis), FLI1 expression level; format: cell-based, human; details: for values of FLI1, effector present: all finalized factors present; for values of Fli1, effector present / values of Fli1, effector removed: FIG. 6 model; for values of Fli1, effector present: all factors present
Description: as §2, §1, §3

[6] = model of FIG. 3, factors YHHU-3792, DBZ, Pumorphamine, SANT1, LPA, YODA1, VEGF, B27
[7] = FIG. 7 model, L-ascorbic acid kept in the model
[8] = FIG. 7 model, named effector removed, L-ascorbic acid kept
[9] = model of FIG. 2, factors VEGF, FGF2, TTNBP, AGN194310, Y27632, Thymosin B4, Heparin, 3 days after stage 1
[10] = FIG. 6 model, all factors present
[11] = model of FIG. 4, factors VEGF, FGF2, Sphingosine 1 phosphate, VH298, Pyrintegrin, Erythropoetin, L-ascorbic acid, XAV939

| Compound | factor contribution (positive impact on expression of genes of interest) (PECAM1 (CD31); [6]) | values of CD34, effector present (CD34) | values of CD34, effector removed (CD34) | values of CD31, effector present (CD31 [4]) | values of CD31, effector removed (CD31 [4]) | values of CDH5, effector present (CDH5 [5]) | values of CDH5, effector removed (CDH5 [5]) | values of FLI1, effector present (FLI1; FIG. 5 model) | impact on expression of PECAM1, CD34, CDH5 and FLI1 [3] | factor contribution (positive impact on expression of genes of interest) (PECAM1 (CD31); [9]) | factor contribution (positive impact on expression of genes of interest) (PECAM1 (CD31); [11]) | also measured |
| --- | --- | --- | --- | --- | --- | --- | --- | --- | --- | --- | --- | --- |
| Cc1c[nH]c(-c2cnc(NCCNc3ccc(C#N)cn3)nc2-c2ccc(Cl)cc2Cl)n1 [CHIR99012] |  |  |  |  |  |  |  |  |  |  |  | yield of CD34+CD31+ cells prior to sorting (pluripotent stem cells): 20-30% |
| C[C@H](NC(=O)Cc1cc(F)cc(F)c1)C(=O)N[C@@H]1C(=O)N(C)c2ccccc2-c2ccccc21 [DBZ] | low |  |  |  |  |  |  |  |  |  |  |  |
| c1ccc2c(Oc3nc(Nc4ccc(N5CCOCC5)cc4)c4ncn(C5CCCCC5)c4n3)cccc2c1 [Pumorphamine] |  |  |  |  |  |  |  |  |  |  |  | CD31 levels after addition of the SHH agonist (CD31 [1]; FIG. 7 model, agent added): 400; CD31 levels before addition of the SHH agonist (CD31 [1]; FIG. 7 model, without the added agent): 800 |
| Cc1nn(-c2ccccc2)c(C)c1/C=N/N1CCN(Cc2ccccc2)CC1 [SANT1] | 16 |  |  |  |  |  |  |  |  |  |  | CDH5 levels, effector present (CDH5 [2]; [7]): 2928; CDH5 levels, effector removed (CDH5 [2]; [8]): 2340; CD31 levels, effector present (CD31 [1]; [7]): 808; CD31 levels, effector removed (CD31 [1]; [8]): 563; impact on PECAM1 and CDH5 expression ([3]; FIG. 7A-7B model): positive impact |
| C/C(=C\c1ccc(C(=O)O)cc1)c1ccc2c(c1)C(C)(C)CCC2(C)C [TTNBP] |  | 6500 | 4300 | 2000 | 1077 | 10000 | 2600 | 2883 | positive impact | 21 |  |  |
| Oc1nc(-c2ccc(C(F)(F)F)cc2)nc2c1CSCC2 [XAV939] |  |  |  |  |  |  |  |  |  |  | 15 | CD34 levels, effector present (CD34; [10]): 7180; CD34 levels, effector removed (CD34; FIG. 6 model): 5836; values of Fli1, effector present (FLI1): 13400; values of Fli1, effector removed (FLI1; named effector removed): 7300; values of CD31, effector present (CD31 [1]): 6500; values of CD31, effector removed (CD31 [1]; named effector removed): 2225; impact on PECAM1 and Fli1 expression ([3]; FIG. 6A-6B model): positive impact |
| FGF2: FGFR agonist, e.g. recombinant human FGF2 |  |  |  |  |  |  |  |  |  | did not significantly impact the expression of CD31 | 16 | CD34 levels, effector removed (CD34; FIG. 6 model): did not change significantly; values of CDH5, effector present (CDH5 [2]; [10]): 19000; values of CDH5, effector removed (CDH5 [2]; FIG. 6 model, named effector removed): 5000; values of Fli1, effector present (FLI1): 1300; values of Fli1, effector removed (FLI1; named effector removed): 500; values of CD31, effector present (CD31 [1]): 6500; values of CD31, effector removed (CD31 [1]; named effector removed): 1990; impact on PECAM1, FLI1, and CDH5 expression ([3]; FIG. 6A-6B model): positive impact |
| VEGF | 32 | 6500 | 1000 | 2000 | 340 | 10000 | 0 | 4900 | positive impact | 39 | 42 | values of FLI1, effector removed (FLI1; FIG. 5 model, named effector removed, other factors kept): 1035; impact on expression of all genes (PECAM1, CD34, CDH5 and Fli1) ([3]; FIG. 6A-6B model): positive impact; also recorded: critical; impact on expression of all genes (PECAM1, CD34, CDH5 and Fli1) ([3]; FIG. 7A-7B model): positive impact |
| heparin |  | 6500 | 4800 | 2000 | 1500 | 10000 | 5800 | 2883 | positive impact | 11 |  |  |
